Laboratory results from PubChem BioAssay (NCI).
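The compound was tested at five concentrations on cells cultured in 96-well plates, with a 48-hour exposure period. GI50 = concentration required for 50% inhibition of growth. Definition used: TGI = concentration required for complete inhibition of growth.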

Legend:
Test in all cases: NCI-60 cell line screen, 48 h
[1] = test system: CAKI-1 renal
[2] = test system: HL-60(TB) leukemia
[3] = test system: K-562 leukemia
[4] = test system: KM12 colon
[5] = test system: M14 melanoma
[6] = test system: NCI-H23 lung
[7] = test system: NCI-H460 lung
[8] = test system: RXF 393 renal
[9] = test system: SK-MEL-5 melanoma
[10] = test system: UACC-257 melanoma

Compound	GI50 [1] [µM]	TGI [1] [µM]	GI50 [2] [µM]	TGI [2] [µM]	GI50 [3] [µM]	TGI [3] [µM]	GI50 [4] [µM]	TGI [4] [µM]	GI50 [5] [µM]	TGI [5] [µM]	GI50 [6] [µM]	TGI [6] [µM]	GI50 [7] [µM]	TGI [7] [µM]	GI50 [8] [µM]	TGI [8] [µM]	GI50 [9] [µM]	TGI [9] [µM]	GI50 [10] [µM]	TGI [10] [µM]
Cn1cc(-c2csc(-c3cn(C)c4ncccc34)n2)c2ccccc21	0.373	32.5	0.283	18.8	0.103	16.6	0.242	> 76.7	0.256	> 41.4	0.752	20.6	0.336	13.5	0.299	2.96	0.286	16.2	13	> 100
COc1ccc(C=O)c(N(C)C(=O)C(C)(C)C)c1				> 100		> 100		> 100		> 100		> 100		> 100		> 100		> 100		> 100
c1ccc(CNc2nc(Nc3ccc(-c4nc5ccccc5[nH]4)cc3)c3cn[nH]c3n2)cc1	2.13	5.47	2.54	7.44			1.9	4.87	1.72	3.81	2.28	6.13	2.18	5.76	1.57	3.65	1.74	3.3	1.61	3.4
OCCC#Cc1ccccc1C#Cc1ccccc1	12.6	25.2			11	> 100	7.18	17.2	16	31.6	18.2	39.9	21.5	50.7			12	25.3	22.4	45.9
Cc1cc2c(C)nn(Cc3ccc(Cl)cc3Cl)c2c(C#N)c1C				> 100								> 100		> 100		> 100				> 100
COC(=O)C12C3C=CC(O3)C1C1C=CC2O1 (configuration not stated)				> 100		> 100		> 100		> 100		> 100		> 100		> 100		> 100		> 100
CC(=O)OCC1OC(n2cnc3c(I)nc(I)nc32)C(OC(C)=O)C1OC(C)=O (configuration not stated)		4.09		5.52		13.5		15.6		31.6		16.7		35.9		38.3		26.1		27.5
S=c1nc(/C=C/c2ccc(Cl)c(Cl)c2)[nH][nH]1	70	> 100		> 100		> 100		> 100	94.7	> 100		> 100		> 100		> 100		> 100		> 100
CCCCCNC(=O)C1C(=O)N(CCCCC)C(=O)/C1=N\N (configuration not stated)				> 100		> 100		> 100		> 100		> 100		> 100				> 100		> 100
O=C(NCCS(=O)(=O)N1C(=O)C2CCCN2C(=O)[C@@H]1Cc1ccccc1)OCc1ccccc1 (some centres not stated)		> 100		48.9		> 100		> 100		> 100		> 100		> 100		> 100		> 100		> 100
CCN1N=CSC12C(=O)N(c1ccccc1)C(=O)N2c1ccccc1 (configuration not stated)		> 100		> 100		> 100		> 100		> 100		> 100		> 100		> 100		> 100		> 100
COc1ccc(Nc2nc3c(N)cc(C(F)(F)F)cc3nc2-c2ccccc2)cc1		> 100		> 100		> 100		> 100		> 100		> 100		> 100		68.2		> 100		> 100
Cc1ccc2c(c1)/C(=N\N=C/c1cn(C(C)C)c3ccccc13)C(=O)N2	2.6	> 100	1.95	6.17	1.96	> 100	5.5	> 100	3.95	> 100	4.56	> 100	0.833	13.1	4.31	> 100	4.57	> 100	5.05	> 100
O=C1/C(=C/c2ccccc2Cl)COc2ccccc21				58		29.7		34.9				36		43.6		28.9				34.9
Cn1c(=O)c2c(nc3n2C(CCl)CO3)n(C)c1=O (configuration not stated)		> 100		> 100		> 100		> 100		> 100		> 100		> 100				> 100		> 100
COc1ccc(Br)c(CCCCC(=O)O)c1		> 100		> 100		> 100				> 100		> 100		> 100		> 100		> 100		> 100
CNS(=O)(=O)NN(C)S(=O)(=O)c1ccc(C)cc1		> 100		> 100				> 100		> 100		> 100		> 100		> 100		> 100		> 100
COc1cc(-c2[nH]ncc2CCCC(=O)Nc2ccccc2[N+](=O)[O-])ccc1O		> 100		> 100		> 100				> 100		> 100						> 100		> 100
COc1ccc(C(=O)Nc2ccccc2)cc1[N+](=O)[O-]		> 100				> 100		> 100		> 100		> 100		> 100		> 100		> 100		> 100
